# Reference: patent US20220002288A1, “MONOBACTAM COMPOUNDS AND USE THEREFOR” (priority 2018, published 2022)
# Where a name gives a salt, the structure may show the parent alone. Read-outs that look alike come from different tables or passages of the source.
# How the values were obtained:
# Pseudomonas aeruginosa = test: In vitro antibacterial activity, minimum inhibitory concentration (MIC); format: cell-based
# Experimental: (§1) Compounds: The compounds prepared in the above examples and comparative examples. All test compounds were dissolved and diluted with DMSO, and the final concentrations were prepared as 64, 32, 16, 8, 4, 2, 1, 0.5, 0.25, 0.125, 0.0625 μg/mL in the experiment.
# (§2) Bacterial strains: 6 strains of Acinetobacter baumannii (codenames: HDBAB-YK4, HDBAB-YK7, HDBAB-YK12, HDBAB-YK16, HDBAB_OXA_7, ATCC 19606), 2 strains of Pseudomonas aeruginosa (codenames: HDBPA-YK9, HDBPA)-YK15), 1 strain of Escherichia coli (codename: CLB30048), all provided by HD Biosciences (Shanghai) Co., Ltd.
# (§3) Medium: Trypticase soy agar (TSA) (BD BBL 211043), and Cation-adjusted Mueller Hinton broth (CAMHB) (BD BBL212322).
# (§4) The bacteria used for the minimum inhibitory concentration (MIC) test were stored frozen at −80° C., and needed 2 days to recover before use. A small amount of frozen bacteria was scraped with a sterile inoculation loop for streak inoculation on a TSA solid medium petri dish. The dish was placed in an ordinary incubator at 35±2° C. for 20-24 hours. 5-10 Colonies with similar morphologies were picked from the above-mentioned petri dish with a sterile inoculating loop for streak inoculation again on a TSA solid medium petri dish. The dish was then placed in an ordinary incubator at 35±2° C. for 20-24 hours.
# (§5) 1.02×CAMHB liquid medium was taken out from a 4° C. refrigerator and placed at room temperature for preheating. 5-10 Individual bacterial colonies were picked from the solid petri dish of the above Section 2.1 and re-suspended in 500 μL of 0.9% NaCl, and then the OD600 was adjusted to 0.1-0.15 with a spectrophotometer. Then the bacteria were diluted 400 times with 1.02×CAMHB (two-step dilution method: firstly diluting 10 times, then diluting 40 times).
# (§6) The number of inoculated bacteria can be obtained by counting the colonies on the petri dish (see Section 2.4).
# (§7) One compound was arranged in each row of a 96-well test plate: the highest test concentration for each compound was 64 μg/mL, which was diluted by a factor of two.
# (§8) Growth control (GC): 1.02×CAMHB and dimethyl sulfoxide (DMSO) containing bacterial inoculum, no compound.
# (§9) Sterile control (SC): Containing 1.02×CAMHB and DMSO, no compound.
# (§10) All test compounds were dissolved and diluted with DMSO. 50 μL of 3.2 mg/mL of each test compound was transferred to the initial well (A1-H1) of the dilution plate, and then 25 μL of DMSO was transferred to other wells. The test compounds were sequentially diluted by a factor of 2 from column 1 to column 11 (i.e. drawing 25 μL of test compound from column 1 to column 2 and mixing well, and then drawing 25 μL of test compound from column 2 to column 3 and mixing well, and then drawing 25 μL of test compound from column 3 to column 4 and mixing well, and so on, until diluting to column 11).
# (§11) 2 μL of the compound was transferred from the compound plate to the corresponding well of the test plate. Meanwhile, 2 μL of 100% DMSO was transferred to the compound-free wells (the GC and SC wells).
# (§12) 98 μL of the corresponding bacterial inoculum was added to the test plate (except for the SC well).
# (§13) 98 μL of 1.02×CAMHB medium was added to the SC well of the test plate.
# (§14) After the system was added, the test plate was covered with a sterile lid, centrifuged at 800 rpm for 30 seconds, then shaken on a plate shaker at 400 rpm for 1 minute for mixing well, and then placed in an incubator at 35±2° C. for 20 hours.
# (§15) The inoculated bacteria were gradient diluted by 10 folds with the liquid medium, from 10^−1 to 10^−3. 100 μL of the above bacterial dilution was spread evenly on a TSA petri dish, 2 replicates for each dilution. After the medium was absorbed by TSA for 10 minutes, the petri dishes were reversed and incubated in an incubator at 35±2° C. for 24 hours.
# (§16) A compound management system was turned on to check whether the barcode and compound arrangement of each test plate were correct. […]
# Escherichia coli = test: as above; format: cell-based; conditions: strain CLB30048, read-out: MIC
# Experimental: as §1, §2, §3, §4, §5, §6, §7, §8, §9, §10, §11, §12, §13, §14, §15, §16
# Acinetobacter baumannii = test: as above; format: cell-based
# Experimental: as §1, §2, §3, §4, §5, §6, §7, §8, §9, §10, §11, §12, §13, §14, §15, §16
# [1] = Pharmacokinetics of the compounds in mice; format: in vivo, BALB/c mice; conditions: mouse, plasma, male BALB/c mice, single intravenous dose 2 mg/kg, plasma; for Vd: male, BALB/c, iv, 2 mg/kg
# Excerpt: Animals: male BALB/c mice, SPF grade, purchased from Changzhou Cavens Experimental Animal Co., Ltd.; 16-24 g, license number: SCXK (Su)2016-0010; 2 to 3 days of adaptation period were given before the experiment.
# Instruments: API 4500 High Performance Liquid Chromatograph Coupled Triple Quadrupole Mass Spectrometer, and Analyst QS A01.01 Chromatography Workstation were both purchased from AB SCIEX of the United States; Milli-Q ultrapure water device was purchased from Millipore; CF16R XII desktop high-speed refrigerated centrifuge was purchased From Hitachi Company; Qilinbeier Vortex-5 oscillator was purchased from IKA Company of German; electric heating constant-temperature water bath was purchased from Changzhou Guohua Electric Appliance Co., Ltd.; electric pipette was purchased from Thermo Company of American; and microanalysis balance was purchased from Shanghai Mettler Co., Ltd.
# 2 mg of the test compound was weighed, added to physiological saline, vortexed for 2 min, and ultrasonicated for 3 min, to prepare a test solution with a concentration of 0.2 mg/mL for intravenous administration.
# A single dose of 2 mg/kg of the test compound was administered to BALB/c mice via the tail vein, the dose volume being 0.1 mL/10 g. At 5 min, 15 min, 30 min, 1 h, 2 h, 4 h after administration, blood samples were collected from the orbital venous plexus into heparinized EP tubes (0.6 mL), which were temporarily placed on crushed ice.
# The samples were centrifuged at 8000 rpm for 5 min. 15 μL of upper plasma were transferred to a 96-well plate. 150 μL of methanol:acetonitrile (v/v=1:1) (containing 20 ng/mL tolbutamide) was added to 15 μL of plasma, shaken for 3 min, and centrifuged at 4500 rpm for 5 min. 100 μL of supernatant was taken to a 2 mL deep well plate. 100 μL of diluent (pure water) was added. The samples were shaken for 3 min, and centrifuged at 4500 rpm for 5 min. 180 μL of the supernatant was transferred to the sample plate. The content of the compound in the supernatant sample was analyzed by LC-MS/MS, and various pharmacokinetic parameters were calculated with WinNonlin software.
SMILES,MIC (Pseudomonas aeruginosa; strain HDBPA-YK9) [µg/mL],MIC (Pseudomonas aeruginosa; strain HDBPA-YK15) [µg/mL],MIC (Escherichia coli) [µg/mL],"MIC (Acinetobacter baumannii; ATCC19606, strain ATCC 19606) [µg/mL]",MIC (Acinetobacter baumannii; strain HDBAB-YK4) [µg/mL],MIC (Acinetobacter baumannii; strain HDBAB-YK7) [µg/mL],MIC (Acinetobacter baumannii; strain HDBAB-YK12) [µg/mL],MIC (Acinetobacter baumannii; strain HDBAB-YK16) [µg/mL],MIC (Acinetobacter baumannii; strain HDBAB_OXA_7) [µg/mL],Vd ([1]; read-out: VSS) [L/kg],Vd ([1]; read-out: Vd) [L/kg],AUC(0-inf) [1] [ng·h/mL],AUC(0-t) [1] [ng·h/mL],C0 [1] [ng/mL],clearance [1] [mL/min/kg],half-life [1] [min]
"CC1(C)[C@H](NC(=O)/C(=N\O[C@@H](CCCOc2ccc(-c3cn(CCCN)[n+](CC4CNC4)c3)cc2)C(=O)O)c2csc(N)n2)C(=O)N1OS(=O)(=O)[O-] [Example 10, (S)-3-((Z)-2-(((S)-4-(4-(1-(3-aminopropyl)-2-(azetidin-3-ylmethyl)-1H-pyrazol-2-ium-4-yl)phenoxy)-1-carboxybutoxy)imino)-2-(2-aminothiazol-4-yl)acetylamino)-2,2-dimethyl-4-oxoazetidin-1-yl Sulfate]",8,32,1,4,8,0.5,8,16,8,–,–,–,–,–,–,–
"CC1(C)[C@H](NC(=O)/C(=N\O[C@@H](COc2ccc(-c3ccc4[nH]c(CN)nc4c3)cc2)C(=O)O)c2csc(N)n2)C(=O)N1OS(=O)(=O)O [Example 11, (S)-3-(4-(2-(aminomethyl)-1H-benzo[d]imidazol-5-yl)phenoxy)-2-((((Z)-1-(2-aminothiazol-4-yl)-2-(((S)-2,2-dimethyl-4-oxo-1-(sulfonyloxy)azetidin-3-yl)amino)-2-oxoethylene)amino)oxy)propionic Acid]",32,> 64,32,> 64,> 64,> 64,16,> 64,> 64,–,–,–,–,–,–,–
"CC1(C)[C@H](NC(=O)/C(=N\O[C@@H](COc2ccc(-c3ccc(NC(=O)[C@@H](N)CCCCN)nc3)cc2)C(=O)O)c2csc(N)n2)C(=O)N1OS(=O)(=O)O [Example 5, (S)-2-((((Z)-1-(2-aminothiazol-4-yl)-2-(((S)-2,2-dimethyl-4-oxo-1-(sulfonyloxy)azetidin-3-yl)amino)-2-oxoethylene)amino)oxy)-3-(4-(6-((S)-2,6-diaminohexanamido)pyridin-3-yl)phenoxy)propionic Acid]",32,> 64,8,8,32,> 64,4,64,16,–,–,–,–,–,–,–
CC1(C)[C@H](NC(=O)/C(=N\O[C@@H](COc2ccc(-c3ccc(NC(=O)[C@@H](N)CO)nc3)cc2)C(=O)O)c2csc(N)n2)C(=O)N1OS(=O)(=O)O [Example 7],32,> 64,64,64,> 64,> 64,16,> 64,> 64,–,–,–,–,–,–,–
"C[n+]1cc(-c2ccc(OC[C@H](O/N=C(\C(=O)N[C@@H]3C(=O)N(OS(=O)(=O)[O-])C3(C)C)c3csc(N)n3)C(=O)O)cc2)ccc1NC(=O)[C@@H](N)CCCCN [Example 4, (S)-3-((Z)-2-(2-aminothiazol-4-yl)-2-(((S)-1-carboxy-2-(4-(6-((S)-2,6-diaminohexanamido)-1-methylpyridin-1-ium-3-yl)phenoxy)ethoxy)imino)acetylamino)-2,2-dimethyl-4-oxoazetidin-1-yl Sulfate]",16,> 64,8,2,2,2,4,32,16,0.73,0.88,813,751,3010,42.8,13.8
C[n+]1cc(-c2ccc(OC[C@H](O/N=C(\C(=O)N[C@@H]3C(=O)N(OS(=O)(=O)[O-])C3(C)C)c3csc(N)n3)C(=O)O)cc2)ccc1NC(=O)[C@@H](N)CO [Example 6],64,> 64,32,64,32,64,4,> 64,32,–,–,–,–,–,–,–
C[n+]1cc(-c2ccc(OC[C@H](O/N=C(\C(=O)N[C@@H]3C(=O)N(OS(=O)(=O)[O-])C3(C)C)c3csc(N)n3)C(=O)O)cc2)ccc1NC(=O)[C@H](N)CCCCN [Example 8],16,> 64,8,2,4,1,2,16,8,–,–,–,–,–,–,–
